Values of other authors in patent US11446359B2, “Systems and methods for cardiac plexus neuromodulation” (Tulavi Therapeutics, Inc., priority 2015, dated 2022).

Assays:
[1] = 2.5 ml 0.25% with epinephrine
asthma [2] = system: asthma
asthma [3] = system: asthma; remark: listed apart in the source
[4] = system: thoracic sympathetic ganglia and rami
lumbar chain = details: remaining 4 required a second block
[5] = in vivo
axons and Schwann cells = details: in vivo

CCCCN1CCCCC1C(=O)Nc1c(C)cccc1C (centres unmarked) [Marcaine]
duration of relief [1]: 1 to 10 days
duration of relief, median [1]: 4 days

C[C@H](CCCC(C)(C)O)[C@H]1CC[C@H]2[C@@H]3CC=C4C[C@@H](O)CC[C@]4(C)[C@H]3CC[C@]12C [25-OH-cholesterol]
relative potency among cholesterol oxides (sympathetic ganglia): most potent

CCO [absolute alcohol, ethanol]
patients with complete disappearance of asthma (asthma [2]; case studies, n=5, 2.5 cc absolute alcohol per injection): 100%
cases with complete relief (asthma [2]; further work, 13/18 cases): 72%
patients free of asthma (asthma [3]; case studies, n=3, 1 cc absolute alcohol): 100%
cases that obtained complete relief (asthma [3]; further cases): 80%
patients with complete relief ([4]; 23 cases): 75%
cases with cure or dramatic improvement in asthma ([4]; severe intractable asthma cases (Levin 1935)): 75%
patients that required one injection only (lumbar chain): 19/23

Oc1ccccc1 [phenol]
bilateral sensory blockade [5]: 1.3%
intrathecal injection observed [5]: 0.52%
transient hypertension [5]: 4.6%
time at which regeneration in the periphery may begin (axons and Schwann cells): 2 weeks
